In patent US20110046228A1 (priority 2009, published 2011):
Values joined by “and” are separate entries in the source; they are usually repeats but may differ in a detail not shown here. Identical values can stand only once. Like-named read-outs stand apart in the source and are kept apart here.

Assays:
[1] = set-up: AUC0-t, Geometric Mean: unit not given beside the values
clinical = settings: both, human, plasma, oral, 0.6 mg; for AUC(0-t): AUC0-t; for AUC(0-inf): AUC0-∞; for CL/F: Weight-Adjusted CL/F
Experimental: This study is an open-label, non-randomized, single-center, one-sequence, two-period drug interaction study conducted in healthy male and female volunteers. Twenty-four (24) non-smoking, non-obese adult volunteers will be enrolled. All subjects will be dosed and studied as a single cohort, with each subject receiving the same treatment in a non-randomized fashion. As described below, a single dose of colchicine, 0.6 mg, will be administered alone on Day 1, and then co-administered with the grapefruit juice on Day 18. Grapefruit juice will be administered for 4 consecutive days (1×240 mL twice daily Days 15-17 and Day 18 (PM) alone and co-administered with a single 0.6 mg colchicine tablet in the morning on Day 18 (AM) (1×240 mL) beginning on the morning of Day 15, with the last 240 mL grapefruit juice dose administered in the evening of Day 18. A 14-day washout period will be completed after the first colchicine dose on Day 1 and prior to the administration of the first grapefruit juice dose on Day 15.
Grapefruit juice ([…] ® brand) will be purchased and stored according to the labeled instructions. Subjects in the study will consume 240 mL (8 fluid ounces) of juice every 12 hours for 8 doses (4 day regimen) to ensure the maximum inhibitory effect.
Following a screening period of up to 28 days, 24 healthy male and female volunteers will be enrolled. Subjects will be confined to the study unit for approximately 1.5 days on two separate occasions starting at least 10 hours prior to dosing on the evening of Day 1 and Day 17 until 24 hours following study drug administration on Day 1 and Day 18. In addition to confinement, study subjects will return to the clinical study site for the collection of blood samples 36, 48, 72, and 96 hours post dosing during both colchicine pharmacokinetic sampling periods. Total study participation, exclusive of up to 28 days of screening, will be approximately 22 days, during which subjects will be confined on two occasions for a total confinement of approximately 3 days.
All subjects will receive a single 0.6 mg dose of colchicine on Day 1, followed by a 14-day washout period in which subjects will not be confined at study site. At discharge on Day 2 (at approximately 8 AM), study subjects will be instructed to return to the clinical site on Days 15 through 17 in the mornings and evenings to consume (1×240 mL, i.e., 8 fluid ounces) grapefruit juice twice daily on Days 15 through 17 in a ‘directly-observed’ fashion. On the evening of Day 17, study participants will return to the clinic for their final study confinement period. In the morning of Day 18, study subjects will receive a single 0.6 mg colchicine dose with a 240 mL serving of grapefruit juice. In the evening of Day 18, study subjects will receive their final 240 mL serving of grapefruit juice administered alone.
A minimum fasting period of 10 hours (overnight fast) will be in effect before administration of colchicine on Day 1 and prior to the administration of colchicine and grapefruit juice on Day 18. Fasting will continue for 4 hours post-dosing on Days 1 and 18 after the morning administration. Grapefruit juice doses administered on Days 15-17 and Day 18 (PM) will not be in a fasted state. For colchicine, medication must be swallowed whole, not chewed. For grapefruit juice, the entire serving must be consumed. For all treatments, the subjects will not be permitted to lie down for the first 4 hours following administration of drug to ensure proper stomach emptying. On both of the confined study days after the morning administrations (Day 1 and Day 18), water will be allowed ad libitum beginning 2 hours post-dose. Intake of all study medications will be supervised. Standardized meals will be served according to a pre-determined schedule throughout the study.
Serial blood samples will be collected by individual venipuncture up to 96 hours following drug administration on Day 1 and Day 18.

[2] = test system: individuals with Behcet's syndrome (or disease); settings: adjusted to bodyweight, cited from earlier work
[3] = with a single glass (200-250 mL) of grapefruit juice; cited from earlier work
[4] = individual subjects, single 0.6 mg colchicine, plasma, A Day 1, A + B Day 18
[5] = maximum of N = 21, single 0.6 mg colchicine, plasma
[6] = mean of N = 21, single 0.6 mg colchicine, plasma
[7] = median of N = 21, single 0.6 mg colchicine, plasma
[8] = minimum of N = 21, single 0.6 mg colchicine, plasma
[9] = single 0.6 mg colchicine dose, plasma
[10] = Least Squares Mean, Non-Transformed Data, single 0.6 mg colchicine dose
[11] = Mean, mean of N = 21, single 0.6 mg colchicine
[12] = Median, median of N = 21, single 0.6 mg colchicine
[13] = Geometric Mean, single 0.6 mg colchicine dose, N = 21, based on least squares means of ln-transformed values

COc1cc2c(c(OC)c1OC)-c1ccc(OC)c(=O)cc1[C@@H](NC(C)=O)CC2 [Treatment A, (−)-N-[(7S, 12aS)-1,2,3,10-tetramethoxy-9-oxo-5,6,7,9-tetrahydrobenzo[a]heptalen-7-yl]-acetamide]
AUC0-∞ [1, 4]: 10.8336 ng·h/mL and 14.15474 ng·h/mL and 9.5485 ng·h/mL and 13.07636 ng·h/mL and 20.67702 ng·h/mL and 9.19604 ng·h/mL and 7.56206 ng·h/mL and 10.95321 ng·h/mL and 12.50531 ng·h/mL and 8.2513 ng·h/mL and 7.55929 ng·h/mL and 21.66786 ng·h/mL and 8.57677 ng·h/mL and 10.79516 ng·h/mL and 4.54846 ng·h/mL and 9.55313 ng·h/mL | CL/F [1, 4]: 55.38 L/h and 42.39 L/h and 62.84 L/h and 57.10 L/h and 45.88 L/h and 29.02 L/h and 65.25 L/h and 79.34 L/h and 54.78 L/h and 57.58 L/h and 51.63 L/h and 57.64 L/h and 47.98 L/h and 72.72 L/h and 79.37 L/h and 27.69 L/h and 58.47 L/h and 69.96 L/h and 55.58 L/h and 131.91 L/h and 62.81 L/h | Kel [1, 4]: 0.1619 h⁻¹ and 0.2194 h⁻¹ and 0.1653 h⁻¹ and 0.1160 h⁻¹ and 0.1881 h⁻¹ and 0.0484 h⁻¹ and 0.2291 h⁻¹ and 0.1859 h⁻¹ and 0.1655 h⁻¹ and 0.1563 h⁻¹ and 0.1843 h⁻¹ and 0.1946 h⁻¹ and 0.1506 h⁻¹ and 0.1355 h⁻¹ and 0.2178 h⁻¹ and 0.0847 h⁻¹ and 0.1512 h⁻¹ and 0.1866 h⁻¹ and 0.1851 h⁻¹ and 0.2814 h⁻¹ and 0.1925 h⁻¹ | Tmax [1, 4]: 1.00 h and 2.00 h | Varea/F [1, 4]: 342.07 L and 193.19 L and 380.20 L and 492.22 L and 243.91 L and 599.39 L and 284.79 L and 426.86 L and 331.07 L and 368.37 L and 280.11 L and 296.22 L and 318.56 L and 536.77 L and 364.36 L and 327.00 L and 386.70 L and 374.82 L and 300.24 L and 468.69 L and 326.22 L | t1/2 [1, 4]: 4.28 h and 3.16 h and 4.19 h and 5.98 h and 3.68 h and 14.32 h and 3.03 h and 3.73 h and 4.43 h and 3.76 h and 3.56 h and 4.60 h and 5.12 h and 3.18 h and 8.19 h and 4.58 h and 3.71 h and 3.74 h and 2.46 h and 3.60 h | AUC0-t, Max [1, 5]: 18.3968 ng·h/mL | AUC0-∞, Max [1, 5]: 21.66786 ng·h/mL | CL/F, Max [1, 5]: 131.91 L/h | Cmax, Max [1, 5]: 3.758 ng/mL | Kel, Max [1, 5]: 0.2814 h⁻¹ | Tmax, Max [1, 5]: 2.00 h | Varea/F, Max [1, 5]: 599.39 L | t1/2, Max [1, 5]: 14.32 h | CL/F, Mean [1, 6]: 60.25 L/h | Kel, Mean [1, 6]: 0.1714 h⁻¹ | Varea/F, Mean [1, 6]: 363.89 L | CL/F, Median [1, 7]: 57.58 L/h | Kel, Median [1, 7]: 0.1843 h⁻¹ | Varea/F, Median [1, 7]: 342.07 L | t1/2, Median [1, 7]: 3.76 h | AUC0-t, Min [1, 8]: 3.83287 ng·h/mL | AUC0-∞, Min [1, 8]: 4.54846 ng·h/mL | CL/F, Min [1, 8]: 27.69 L/h | Cmax, Min [1, 8]: 0.8452 ng/mL | Kel, Min [1, 8]: 0.0484 h⁻¹ | Tmax, Min [1, 8]: 1.00 h | Varea/F, Min [1, 8]: 193.19 L | t1/2, Min [1, 8]: 2.46 h | Bioequivalence of oral colchicine with grapefruit juice vs in the absence of grapefruit juice ([1]; recommended maximum daily amount of grapefruit juice (about 16 fluid ounces daily)): bioequivalent | Kel, Least Squares Mean, Non-Transformed Data [1, 9]: 0.1714 | Varea/F, Least Squares Mean, Non-Transformed Data [1, 9]: 363.89 | AUC0-t, Geometric Mean ([1]; single 0.6 mg colchicine dose, plasma, N = 21, based on least squares means of ln-transformed values): 8806.78 | AUC(0-t) (clinical; [10]): 9.33 ng·h/mL | AUC(0-t) (clinical; [11]): 9.33 ng·h/mL | AUC(0-t) (clinical; [12]): 8.84 ng·h/mL | AUC(0-inf) (clinical; [13]): 10.5 ng·h/mL | AUC(0-inf) (clinical; [10]): 11.1 ng·h/mL | AUC(0-inf) (clinical; [11]): 11.1 ng·h/mL | AUC(0-inf) (clinical; [12]): 10.4 ng·h/mL | Cmax (clinical; [13]): 2.07 ng/mL | Cmax (clinical; [10]): 2.17 ng/mL | Cmax (clinical; [11]): 2.17 ng/mL | Cmax (clinical; [12]): 2.06 ng/mL | Tmax (clinical; [10]): 1.24 h | Tmax (clinical; [11]): 1.24 h | Tmax (clinical; [12]): 1 h | CL/F (clinical; [10]): 12.3 mL/min/kg | CL/F (clinical; [11]): 12.3 mL/min/kg | CL/F (clinical; [12]): 11.3 mL/min/kg | half-life (clinical; t1/2, Least Squares Mean, Non-Transformed Data, single 0.6 mg colchicine dose): 4.64 h | half-life (clinical; t1/2, Mean, mean of N = 21, single 0.6 mg colchicine): 4.64 h | Clinical effect in Behcet's disease ([2]; 1-2 mg daily): reduced the frequency of genital ulcers, erythema nodosum, and arthritis among women and reduced the occurrence of arthritis among men | Clinical effect in Behcet's syndrome ([2]; 1-2.4 mg daily): reduced the frequency of genital ulcers, erythema nodosum, and arthritis among women and reduced the occurrence of arthritis among men

CCOC(=O)C1=C(C)NC(C)=C(C(=O)OC)C1c1cccc(Cl)c1Cl (stereo not shown) [felodipine]
Change in AUC and Cmax of orally administered felodipine [3]: several-fold increase
